Results from patent publication EP0603412A1, “COMPOUNDS BASED ON PALLADIUM AND ON DERIVATIVES OF AROMATIC AMINES AND METHOD OF OBTAINING THEM” (priority 1992, dated 1993).
Read-outs that look alike come from different tables or passages of the source.

Experiments:
male mice F1(CBA57BL) = conditions: single administration
Protocol: Tests were carried out on male hybrid mice F₁(CBAxC₅₇BL). About two thousands animals have been used in tests.
Acute toxicity off the invention compounds was determined in experiments on mice after a single intravenous and intraperitoneal administration. Tested compounds were injected in the form of 0.1 to 1.0 wt% solutions by syringe with the entry needle. Intraperitoneal route was effected by administering a suspension of the compounds in 1% starch size using a syringe and a metal probe. […] Toxicity doses were calculated and statistically processed via Litchfield-Wilcoxon technique modified by Z.Rott.

[1] = tested on: male hybrid mice F₁(CBAxC₅₇BL); test: Radiomodifying effect under single total γ-irradiation (survival, LD50/8, LD50/30, DCF); format: in vivo; conditions: for DCF: based on LD50/30; for LD50/30: mouse, in vivo
Protocol: About two thousands animals have been used in tests.
Before irradiation control group of animals was intravenously administered isotonic saline solution in amount of 0.3 ml per mouse.
(§1) The mice were placed into the glass containers inserted into irradiation zone. The radiation sources were arranged in the form of "squirrel cage". The radiation doses were established by duration of the stay in active zone. […] The animals were irradiated in the range from 4.0 to 10 Gr.
(§2) A survival rate was determined on the 8th and 30th day of observation. From the data obtained were derived the curves illustrating a dependence of the survival rate upon a radiation dosage on a percentage basis. LD50/8 and LD50/30 values were estimated by extrapolation to the dosage scale.
(§3) A radiomodifying effect was evaluated by a dose change factor (DCF) calculated from the ratio of LD₅₀ in test to LD₅₀ in control.

mice [2] = test: Radiomodifying effect under five-fold γ-irradiation at 24 hours intervals; format: in vivo; conditions: 10 mg/kg, 15 min after each fraction
Protocol: as §1, §2, §3

mice [3] = test: Radiomodifying effect under two-fold γ-irradiation at 4 hours intervals; format: in vivo; conditions: for Survival rate: 1st fraction 4.0 Gr; for DCF: two-fold irradiation
Protocol: as §1
A survival rate was determined on the 8th and 30th day of observation. From the data obtained were derived the curves illustrating a dependence of the survival rate upon a radiation dosage on a percentage basis.
as §3

[4] = 10mg/kg 15 min after irradiation (Table 7)
[5] = 10mg/kg 15 min after irradiation, irradiation dose 7.5 Gr
[6] = 10mg/kg 15 min after irradiation, irradiation dose 8.0 Gr
[7] = 10mg/kg 15 min after irradiation, irradiation dose 8.5 Gr
[8] = system Ephazole/0.9% NaCl, calculated from literature equilibrium constants

Substance | LD10 (male mice F1(CBA57BL); i.v.) | LD50 (male mice F1(CBA57BL); i.v., observed for a month) | DCF [1, 4] | Survival rate [1, 5] | Survival rate [1, 6] | Survival rate [1, 7] | LD50/30 [1] | further results
N-[1,3-dihydroxy-1-(4-nitrophenyl)-prop-2-yl]ammonium palladium tetrachloride [Compound 3] | 70 mg/kg | 90(97.5-82.5) mg/kg | 1.07 | 60% | 30% | 0% | 7.7 Gr | –
N-ethyl-N-[2-hydroxy-2(4-hydroxyphenyl)ethyl]ammonium palladium tetrachloride [Compound 5] | 10 mg/kg | 15(16.8-13.2) mg/kg | 1.07 | 70% | 20% | 0% | 8.25 Gr | DCF ([1]; 10mg/kg 15 min before irradiation (Table 7)): 1.14; Survival rate ([1]; 10mg/kg 15 min before irradiation, irradiation dose 7.5 Gr): 90%; Survival rate ([1]; 10mg/kg 15 min before irradiation, irradiation dose 8.0 Gr): 70%; Survival rate ([1]; 10mg/kg 15 min before irradiation, irradiation dose 8.5 Gr): 30%; LD50/30 ([1]; listed as compound 5): 7.75 Gr
N-methyl-N-(1-phenyl-1-hydroxy-prop-2-yl)ammonium palladium tetrachloride [Ephazole] | 110 mg/kg | – | – | – | – | – | – | LD10 (male mice F1(CBA57BL); i.p.): 180 mg/kg; time for using a 0.4% solution (0.4% solution in isotonic saline medium, 25°C): not over one hour; temperature over which solutions could not be heated (0.9% NaCl solutions tested at 4, 25, 40 and 100°C): ≤ 40 °C; content of [PdCl₃(H₂O)]⁻ anion under equilibrium conditions [8]: 21.3%; content of [PdCl₄]²⁻ under equilibrium conditions [8]: 78.7%; state in aqueous solutions (water as vehicle, 20 mg/10 ml and 40 mg/10 ml): profound hydrolysis; DCF (mice [2]): 1.47; Survival rate (mice [3]; 10 mg/kg i.v. within 15 min after 1st and 2nd fraction, 2nd fraction 5.0 Gr): 90%; Survival rate (mice [3]; 10 mg/kg i.v. within 15 min after 1st and 2nd fraction, 2nd fraction 5.5 Gr): 60%; Survival rate (mice [3]; 10 mg/kg i.v. within 15 min after 1st and 2nd fraction, 2nd fraction 6.0 Gr): 20%; DCF (mice [3]; 10 mg/kg i.v. within 15 min after 1st and 2nd fraction): 1.11; Survival rate (mice [3]; 10 mg/kg i.v. within 15 min after 1st fraction, 2nd fraction 4.5 Gr): 90%; Survival rate (mice [3]; 10 mg/kg i.v. within 15 min after 1st fraction, 2nd fraction 5.0 Gr): 70%; Survival rate (mice [3]; 10 mg/kg i.v. within 15 min after 1st fraction, 2nd fraction 5.5 Gr): 30%; DCF (mice [3]; 10 mg/kg i.v. within 15 min after 1st fraction): 1.06
N-methyl-N-(2-phenyl-2-hydroxypropyl)ammonium palladium tetrachloride [Compound 4] | 75 mg/kg | 100(109.5-91.5) mg/kg | 1.07 | 80% | 20% | 10% | 7.75 Gr | –
N-methyl-N-[2-hydroxy-2(4-nitrophenyl)ethyl]ammonium palladium tetrachloride [Compound 2] | – | – | 1.10 | 70% | 30% | – | 8.0 Gr | LD10 (male mice F1(CBA57BL); i.g.): 63 mg/kg; LD50 (male mice F1(CBA57BL); i.g.): 95(107-83) mg/kg; Survival rate ([1]; 10mg/kg 15 min after irradiation, irradiation dose 7.0 Gr): 90%
